Laboratory results taken from ChEMBL document CHEMBL3826894, “Structural modification of luteolin from Flos Chrysanthemi leads to increased tumor cell growth inhibitory activity” (Bioorg Med Chem Lett, 2016).
pIC50, pKi: −log10 of the molar value.

Legend:
[1] = Cytotoxicity against human HL60 cells assessed as reduction in cell viability after 72 hrs by MTT assay; assay type: functional, cell-based; conditions: HL-60, 72 h
[2] = Cytotoxicity against human HL60 cells assessed as inhibition of cell growth at 100 uM after 72 hrs by MTT assay; assay type: functional; conditions: HL-60, 72 h, read-out: GI
[3] = target: T1, Bcl-2-like protein 1 (Homo sapiens, UniProt Q07817); experiment: Inhibition of Bcl-XL (unknown origin) using FAM-Bid peptide as substrate at 50 uM by fluorescence polarization-based assay
T1 sequence (Q07817 whole entry): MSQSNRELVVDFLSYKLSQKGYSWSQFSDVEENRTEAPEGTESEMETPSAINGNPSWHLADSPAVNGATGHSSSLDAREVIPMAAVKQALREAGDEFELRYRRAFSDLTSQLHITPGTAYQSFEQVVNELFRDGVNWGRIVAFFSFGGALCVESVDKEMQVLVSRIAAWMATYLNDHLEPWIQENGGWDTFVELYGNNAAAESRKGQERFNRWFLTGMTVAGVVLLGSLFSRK

[4] = target: T1, Bcl-2-like protein 1; experiment: Inhibition of Bcl-XL (unknown origin) using FAM-Bid peptide as substrate by fluorescence polarization-based assay
[5] = test system: HEK293; experiment: Cytotoxicity against human HEK293 cells assessed as reduction in cell viability after 72 hrs by MTT assay; assay type: cell-based; conditions: HEK293, 72 h
[6] = target: T2, Apoptosis regulator Bcl-2 (Homo sapiens, UniProt P10415); experiment: Inhibition of Bcl-2 (unknown origin) using FAM-Bid peptide as substrate at 50 uM by fluorescence polarization-based assay
T2 sequence (P10415 whole entry): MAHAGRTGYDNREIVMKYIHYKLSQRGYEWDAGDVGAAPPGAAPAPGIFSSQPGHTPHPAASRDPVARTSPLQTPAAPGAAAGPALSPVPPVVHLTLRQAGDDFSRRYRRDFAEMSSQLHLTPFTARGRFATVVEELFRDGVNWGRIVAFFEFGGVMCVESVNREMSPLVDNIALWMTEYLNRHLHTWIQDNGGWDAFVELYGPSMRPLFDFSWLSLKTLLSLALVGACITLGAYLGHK

[7] = target: T2, Apoptosis regulator Bcl-2; experiment: Inhibition of Bcl-2 (unknown origin) using FAM-Bid peptide as substrate by fluorescence polarization-based assay

Q: With Cc1ccc(Cc2cc(-c3cc(=O)c4c(O)cc(O)cc4o3)cc(O)c2O)cc1 as the compound, how does the pIC50 [1] read?
A: 4.00

Q: And the inhibition of growth at 100 µM [2]?
A: 49.1%

Q: With Cc1cc2c(C(C)C)c(O)c(O)c(C=O)c2c(O)c1-c1c(C)cc2c(C(C)C)c(O)c(O)c(C=O)c2c1O [GOSSYPOL] as the compound, how does the pIC50 [1] read?
A: 5.18

Q: What about the inhibition [3] of the same compound?
A: 100%

Q: And the inhibition of growth at 100 µM [2]?
A: 92%

Q: What about the pKi [4] of the same compound?
A: 6.51

Q: And the pIC50 [5]?
A: 4.96

Q: What about the inhibition [6] of the same compound?
A: 100%

Q: What does the source list for Cc1ccc(Cc2cc(O)c(O)cc2-c2cc(=O)c3c(O)cc(O)cc3o2)cc1?
A: pIC50 [1]: < 4.00; inhibition of growth at 100 µM [2]: 19.9%

Q: What does the source list for COc1cc(O)c2c(=O)cc(-c3cc(O)c(O)cc3Cc3cccc(C)c3)oc2c1?
A: pIC50 [1]: 5.00; inhibition of growth at 100 µM [2]: 86.1%; pIC50 [5]: 4.13

Q: What does the source list for COc1cc(O)c2c(=O)cc(-c3cc(O)c(O)c(Cc4ccccc4C)c3)oc2c1?
A: pIC50 [1]: 4.83; inhibition of growth at 100 µM [2]: 68.9%

Q: With COc1cc(O)c2c(=O)cc(-c3cc(O)c(O)cc3Cc3ccccc3Cl)oc2c1 as the compound, how does the pIC50 [1] read?
A: 4.69

Q: What about the inhibition of growth at 100 µM [2] of the same compound?
A: 85.8%

Q: With O=c1cc(-c2cc(O)c(O)c(Cc3ccccc3Cl)c2)oc2cc(O)cc(O)c12 as the compound, how does the pIC50 [1] read?
A: < 4.00

Q: And the inhibition of growth at 100 µM [2]?
A: 30.6%

Q: With O=c1cc(-c2cc(O)c(O)c(Cc3ccccc3)c2)oc2cc(O)cc(O)c12 as the compound, how does the pIC50 [1] read?
A: 4.36

Q: What about the inhibition of growth at 100 µM [2] of the same compound?
A: 78%

Q: What does the source list for COc1cc(O)c2c(=O)cc(-c3cc(O)c(O)cc3Cc3ccc(Cl)cc3)oc2c1?
A: pIC50 [1]: 4.93; inhibition of growth at 100 µM [2]: 92.1%

Q: With COc1cc(O)c2c(=O)cc(-c3cc(O)c(O)c(Cc4cccc(C)c4)c3)oc2c1 as the compound, how does the pIC50 [1] read?
A: 4.20

Q: What about the inhibition of growth at 100 µM [2] of the same compound?
A: 55%

Q: With O=c1cc(-c2cc(O)c(O)cc2Cc2ccccc2Cl)oc2cc(O)cc(O)c12 as the compound, how does the pIC50 [1] read?
A: 4.38

Q: What about the inhibition of growth at 100 µM [2] of the same compound?
A: 73.4%

Q: What does the source list for O=c1cc(-c2cc(O)c(O)cc2Cc2ccc(Cl)cc2)oc2cc(O)cc(O)c12?
A: pIC50 [1]: 5.15; inhibition of growth at 100 µM [2]: 100%

Q: With COc1cc(O)c2c(=O)cc(-c3cc(O)c(O)c(Cc4ccccc4Cl)c3)oc2c1 as the compound, how does the pIC50 [1] read?
A: 4.86

Q: What about the inhibition of growth at 100 µM [2] of the same compound?
A: 80.8%

Q: With Cc1ccccc1Cc1cc(-c2cc(=O)c3c(O)cc(O)cc3o2)cc(O)c1O as the compound, how does the pIC50 [1] read?
A: < 4.00

Q: What about the inhibition of growth at 100 µM [2] of the same compound?
A: 31.5%

Q: With O=c1cc(-c2ccc(O)c(O)c2)oc2cc(O)cc(O)c12 [LUTEOLIN] as the compound, how does the pIC50 [1] read?
A: < 4.00

Q: And the inhibition [3]?
A: 49%

Q: And the inhibition of growth at 100 µM [2]?
A: 44%

Q: And the inhibition [6]?
A: 46%

Q: With O=c1cc(-c2cc(O)c(O)cc2Cc2ccccc2)oc2cc(O)cc(O)c12 as the compound, how does the pIC50 [1] read?
A: 4.44

Q: What about the inhibition [3] of the same compound?
A: 70%

Q: And the inhibition of growth at 100 µM [2]?
A: 80%

Q: And the pKi [4]?
A: 5.08

Q: And the pKi [7]?
A: 5.34

Q: And the pIC50 [5]?
A: 4.04

Q: And the inhibition [6]?
A: 96%

Q: Which results are given for Cc1cccc(Cc2cc(-c3cc(=O)c4c(O)cc(O)cc4o3)cc(O)c2O)c1?
A: pIC50 [1]: 4.68; inhibition of growth at 100 µM [2]: 71.9%

Q: With O=c1cc(-c2cc(O)c(O)cc2Cc2cccc(Cl)c2)oc2cc(O)cc(O)c12 as the compound, how does the pIC50 [1] read?
A: 4.19

Q: And the inhibition of growth at 100 µM [2]?
A: 65.2%

Q: With O=c1cc(-c2cc(O)c(O)c(Cc3ccc(Cl)cc3)c2)oc2cc(O)cc(O)c12 as the compound, how does the pIC50 [1] read?
A: < 4.00

Q: What about the inhibition of growth at 100 µM [2] of the same compound?
A: 48.6%

Q: Which results are given for COc1cc(O)c2c(=O)cc(-c3cc(O)c(O)cc3Cc3ccc(C)cc3)oc2c1?
A: pIC50 [1]: 4.96; inhibition of growth at 100 µM [2]: 96.4%

Q: With COc1cc(O)c2c(=O)cc(-c3cc(O)c(O)cc3Cc3cccc(Cl)c3)oc2c1 as the compound, how does the pIC50 [1] read?
A: 4.99

Q: And the inhibition of growth at 100 µM [2]?
A: 85.5%

Q: With O=c1cc(-c2cc(O)c(O)c(Cc3cccc(Cl)c3)c2)oc2cc(O)cc(O)c12 as the compound, how does the pIC50 [1] read?
A: 4.54

Q: And the inhibition of growth at 100 µM [2]?
A: 76.4%

Q: With COc1cc(O)c2c(=O)cc(-c3cc(O)c(O)c(Cc4cccc(Cl)c4)c3)oc2c1 as the compound, how does the pIC50 [1] read?
A: 5.53

Q: What about the inhibition of growth at 100 µM [2] of the same compound?
A: 85.2%

Q: With COc1cc(O)c2c(=O)cc(-c3cc(O)c(O)cc3Cc3ccccc3C)oc2c1 as the compound, how does the pIC50 [1] read?
A: 4.83

Q: And the inhibition of growth at 100 µM [2]?
A: 90.2%

Q: Which results are given for COc1cc(O)c2c(=O)cc(-c3cc(O)c(O)cc3Cc3ccccc3)oc2c1?
A: pIC50 [1]: 4.83; inhibition [3]: 100%; inhibition of growth at 100 µM [2]: 82%; pKi [4]: 5.60; pKi [7]: 5.89; inhibition [6]: 100%

Q: With COc1cc(O)c2c(=O)cc(-c3cc(O)c(O)c(Cc4ccccc4)c3)oc2c1 as the compound, how does the pIC50 [1] read?
A: < 4.00

Q: And the inhibition of growth at 100 µM [2]?
A: 37.5%
